Measured values published in US4618604A, “Composition and method for improving feed utilization or tissue production in animals” (Monsanto Company, priority 1984, dated 1986).
Counter-ions that a name gives are not always drawn.

Key:
[1] = Chick growth feeding trial (weight gain and feed conversion, treated vs untreated chicks); assay type: in vivo
[2] = Pig growth feeding trials I-III (weight gain and feed efficiency, treated vs untreated pigs); assay type: in vivo; conditions: Example 2, growing period about 18-90 kg
From the text: The following examples are included to illustrate the improved feed utilization and/or tissue producing effect of the substituted phenylphosphinic acid derivatives of the present invention. It should be understood that examples are included to illustrate the practice of the present invention and are not intended to limit the scope of the invention. It should be further understood that the dosage levels recited in the following examples are only illustrative and are not meant to limit the scope of the invention. Unless otherwise noted, all percentages are by weight. Comparisons are between the numerical average for treated animals and the numerical average for untreated animals.
A swine diet for growing pigs prepared from the following types and amounts of ingredients:
Three trials were conducted wherein pigs were administered 2-methoxyphenylmethylphosphinic acid at dosage levels of 2.0, 10.0, 20.0 (TRIAL I); 0.5, 2.0, 8.0 (TRIAL II); and 0.5, 2.0, 8.0 (TRIAL III) milligrams per kilogram of finished feed throughout a growing period of about 18-90 kg.

[3] = trials I and II, 2.0 mg/kg finished feed
[4] = Example 10, 1, 20, 60 or 100 mg per kg feed
[5] = Examples 4 and 6, 1 mg and 10 mg per kg feed

Compound: CP(=O)(O)c1ccccc1N [2-aminophenylmethylphosphinic acid hydrochloride salt]
- average daily weight gain ([1]; Example 9, 2.0 mg per kg feed): higher average daily weight gain than untreated chicks

Compound: CP(=O)(O)c1ccccc1C(=O)O [2-carboxylphenylmethylphosphinic acid, 2-carboxyphenylmethylphosphinic acid]
- average daily weight gain ([1]; Example 7, 11 mg per kg feed): higher average daily weight gain than untreated chicks

Compound: CP(=O)(O)c1ccccc1Cl [2-chlorophenylmethylphosphinic acid]
- daily weight gain ([1]; Example 5, 0.5 mg per kg feed): higher daily weight gain than untreated chicks

Compound: CCP(=O)(O)c1ccccc1OC [2-methoxyphenylethylphosphinic acid]
- average daily weight gain ([1]; Example 8, 10 mg per kg feed): higher average daily weight gain than untreated chicks

Compound: COc1ccccc1P(C)(=O)O [2-methoxyphenylmethylphosphinic acid]
- weight gain ([2]; 10.0 and 20.0 mg/kg finished feed, vs untreated): gained weight faster than untreated pigs
- daily weight gain [2, 3]: faster daily weight gain
- feed efficiency [2, 3]: improved feed efficiency
- average daily gain [1, 4]: higher average daily gain
- conversion of feed to weight gain [1, 4]: converted feed to weight gain more efficiently than untreated chicks

Compound: Cc1ccccc1P(C)(=O)O [2-methylphenylmethylphosphinic acid]
- conversion of feed to weight gain ([1]; Example 3, 0.5 to 4.0 mg/kg feed, 45-48 days): converted feed to weight gain more efficiently than untreated chicks

Compound: CP(=O)(O)c1ccccc1[N+](=O)[O-] [2-nitrophenylmethylphosphinic acid]
- average daily weight gain [1, 5]: higher average daily weight gain than untreated chicks

Compound: CP(=O)(O)c1ccccc1O [Ammonium 2-hydroxyphenylmethylphosphinate]
- average daily weight gain [1, 5]: higher average daily weight gain than untreated chicks
